Test results published in patent US8034908B2, “Glycolipids and synthetic method thereof as well as their synthetic intermediates, and synthetic method thereof” (Japan as Represented by President of National Center of …, priority 2003, dated 2011).

How the values were obtained:
[1] = tested on: Splenocytes; assay: Test of production of cytokines by glycolipid derivative (in vitro), mouse splenocytes, ELISA; format: cell-based, C57BL/6 mice; settings: for IFN-γ / IL-4: glycolipid 100 ng/ml, 72 hours culture, culture supernatant, ELISA
Method: Test of Production of Cytokines by Glycolipid Derivative (In Vitro)
Splenocytes were prepared from the spleens of C57BL/6 mice (6 to 8 weeks old, female) and suspended in a RPMI1640 medium (purchased by Nakarai) containing 10% fetal bovine serum (purchased by GIBCO), 5×10-^5M 2-mercaptoethanol (purchased by GIBCO), 1 mM pyruvate (purchased by SIGMA), and 25 mM HEPE (purchased by SIGMA). These were seeded on a 96-well flat bottom plate (purchased by IWAKI) in an amount of 5×10e5 cells/well and a glycolipid derivative was added to each at a final concentration of 100 ng/ml. The results were cultured at 37° C. in the presence of 5% CO2 for 72 hours, then the culture supernatent was collected. The concentration of the IL-4 and IFN-γ in the culture supernatent were measured by ELISA (BD Pharmingen EIA Kit) (Table 2).

[2] = tested on: NKT cells; settings: cited from earlier work
[3] = tested on: mouse experimental autoimmunological encephalomyelitis (EAE) model; settings: oral administration; cited from earlier work

| Structure (SMILES) | IFN-γ [1] | IL-4 [1] | Cytokines produced by NKT cells (in words) [2] | Effect in EAE model (in words) [3] | IFN-γ producing activity (in words) ([1]; compared with α-GalCer, Table 2) |
| --- | --- | --- | --- | --- | --- |
| CCCCCCCCCCCCCCCCCCCCCCC(=O)N[C@@H](COC1OC(CO)C(O)C(O)C1O)[C@H](O)[C@H](O)CCCC (stereo partly drawn) [Compound 110, 2-tricosanoylamino-1-O-α-D-galactopyranosyl-D-ribo-1,3,4-octanetriol] | 10614 pg/mL | 226 pg/mL | – | – | – |
| CCCCCCCCCCCCCCCCCCCCCC(=O)N[C@@H](COC1OC(CO)C(O)C(O)C1O)[C@H](O)[C@H](O)CCC (stereo partly drawn) [Compound 111, 2-docasanoylamino-1-O-α-D-galactopyranosyl-D-ribo-1,3,4-heptanetriol] | 7413 pg/mL | 256 pg/mL | – | – | – |
| CCCCCCCCCCCCCCCCCCCCCCC(=O)N[C@@H](COC1OC(CO)C(O)C(O)C1O)[C@H](O)[C@H](O)CC (stereo partly drawn) [Compound 112, 2-tricosanoylamino-1-O-α-D-galactopyranosyl-D-ribo-1,3,4-hexanetriol] | 5832 pg/mL | 237 pg/mL | – | – | – |
| CCCCCCCCCCCCCCCCCCCCCC(=O)N[C@@H](COC1OC(CO)C(O)C(O)C1O)[C@H](O)[C@H](O)CCCCCC (stereo partly drawn) [Compound 113, 2-docasanoylamino-1-O-α-D-galactopyranosyl-D-ribo-1,3,4-decanetriol] | 7967 pg/mL | 251 pg/mL | – | – | – |
| CCCCCCCCCCCCCCCCCCCCCCC(=O)N[C@@H](CO[C@H]1O[C@H](CO)[C@H](O)[C@H](O)[C@H]1O)[C@H](O)[C@H](O)CCCCCC [Compound 114, 2-tricosanoylamino-1-O-α-D-galactopyranosyl-D-ribo-1,3,4-decanetriol] | 8067 pg/mL | 225 pg/mL | – | – | – |
| CCCCCCCCCCCCCCCCCCCCCCCC(=O)N[C@@H](COC1OC(CO)C(O)C(O)C1O)[C@H](O)[C@H](O)CCc1ccccc1 (stereo partly drawn) [Compound 115, 6-phenyl-2-tetracosanoylamino-1-O-α-D-galactopyranosyl-D-ribo-1,3,4-hexanetriol] | 2481 pg/mL | 137 pg/mL | – | – | – |
| CCCCCCCCCCCCCCCCCCCCCCCC(=O)N[C@@H](COC1OC(CO)C(O)C(O)C1O)[C@H](O)[C@H](O)CC1CCCC1 (stereo partly drawn) [Compound 116, 5-cyclopentyl-2-tetracosanoylamino-1-O-α-D-galactopyranosyl-D-ribo-1,3,4-pentanetriol] | 5268 pg/mL | 226 pg/mL | – | – | – |
| CCCCCCCCCCCCCCCCCCCCCCCC(=O)N[C@@H](COC1OC(CO)C(O)C(O)C1O)[C@H](O)[C@H](O)Cc1ccc(C)cc1 (stereo partly drawn) [Compound 117, 5-(4-methylphenyl)-2-tetracosanoylamino-1-O-α-D-galactopyranosyl-D-ribo-1,3,4-pentanetriol] | 5485 pg/mL | 181 pg/mL | – | – | – |
| CCCCCCCCCCCCCCOc1ccc(CCCCC(=O)N[C@@H](COC2OC(CO)C(O)C(O)C2O)[C@H](O)[C@H](O)CCCCC)cc1 (some centres unmarked) [Compound 127] | 2506 pg/mL | 159 pg/mL | – | – | – |
| CCCCCCCCCCCCCCCCCCCCCCCC(=O)N[C@@H](CO[C@H]1O[C@H](CO)[C@H](O)[C@H](O)[C@H]1O)[C@H](O)[C@H](O)CCCCC.O [Compound 129, 2-tetracosanoylamino-1-O-α-D-galactopyranosyl-D-ribo-1,3,4-nonanetriol 1-hydrate] | 7179 pg/mL | 232 pg/mL | – | – | – |
| CCCCCCCCCCCCCCCCCCCCCCCC(=O)N[C@@H](COC1OC(CO)C(O)C(O)C1O)[C@H](O)[C@H](O)CCCCC (some centres unmarked) [OCH] | – | – | more selectively promotes the production of IL-4 | effected in oral administration | – |
| CCCCCCCCCCCCCCCCCCCCCCCCCC(=O)N[C@@H](CO[C@H]1O[C@H](CO)[C@H](O)[C@H](O)[C@H]1O)[C@H](O)[C@H](O)CCCCCCCCCCCCCC [α-Galcer, (2S,3S,4R)-1-O-(α-D-galactosyl)-2-(N-hexacosanoylamino)-1,3,4-octadecanetriol, reference compound] | 21900 pg/mL | 201 pg/mL | causes NKT cells to produce IFN-γ and IL-4 | – | IFN-γ was produced remarkably dominantly |
